Structures can show the parent of a compound that is named as a salt.

For one experiment, the target named is T1, JAK2 tyrosine kinase (Homo sapiens, UniProt O60674).
T1 construct: purchased Carnabioscience Co
Put plainly: Test 1: inhibitory activity to JAK2 tyrosine kinase (ELISA). The experiment is classed as biochemical. Conditions: 25 μM ATP in substrate solution, 30° C. for 1 hour, n=2. The gist of the method:
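This is an ELISA read at A450 (HRP anti-phosphotyrosine antibody, TMB) of biotin-peptide phosphorylation captured on streptavidin. Enzyme solution was 0.75 nM JAK2, and the substrate solution was 625 nM peptide with 25 μM ATP in Tris pH 7.5 buffer. The reaction ran 1 h at 30 °C with compounds in duplicate, and IC50 was fitted non-linearly.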

For another experiment, the target named is T2, JAK3 tyrosine kinase (Homo sapiens, UniProt P52333).
T2 construct: purchased Carnabioscience Co
T2 sequence (P52333 1-1124): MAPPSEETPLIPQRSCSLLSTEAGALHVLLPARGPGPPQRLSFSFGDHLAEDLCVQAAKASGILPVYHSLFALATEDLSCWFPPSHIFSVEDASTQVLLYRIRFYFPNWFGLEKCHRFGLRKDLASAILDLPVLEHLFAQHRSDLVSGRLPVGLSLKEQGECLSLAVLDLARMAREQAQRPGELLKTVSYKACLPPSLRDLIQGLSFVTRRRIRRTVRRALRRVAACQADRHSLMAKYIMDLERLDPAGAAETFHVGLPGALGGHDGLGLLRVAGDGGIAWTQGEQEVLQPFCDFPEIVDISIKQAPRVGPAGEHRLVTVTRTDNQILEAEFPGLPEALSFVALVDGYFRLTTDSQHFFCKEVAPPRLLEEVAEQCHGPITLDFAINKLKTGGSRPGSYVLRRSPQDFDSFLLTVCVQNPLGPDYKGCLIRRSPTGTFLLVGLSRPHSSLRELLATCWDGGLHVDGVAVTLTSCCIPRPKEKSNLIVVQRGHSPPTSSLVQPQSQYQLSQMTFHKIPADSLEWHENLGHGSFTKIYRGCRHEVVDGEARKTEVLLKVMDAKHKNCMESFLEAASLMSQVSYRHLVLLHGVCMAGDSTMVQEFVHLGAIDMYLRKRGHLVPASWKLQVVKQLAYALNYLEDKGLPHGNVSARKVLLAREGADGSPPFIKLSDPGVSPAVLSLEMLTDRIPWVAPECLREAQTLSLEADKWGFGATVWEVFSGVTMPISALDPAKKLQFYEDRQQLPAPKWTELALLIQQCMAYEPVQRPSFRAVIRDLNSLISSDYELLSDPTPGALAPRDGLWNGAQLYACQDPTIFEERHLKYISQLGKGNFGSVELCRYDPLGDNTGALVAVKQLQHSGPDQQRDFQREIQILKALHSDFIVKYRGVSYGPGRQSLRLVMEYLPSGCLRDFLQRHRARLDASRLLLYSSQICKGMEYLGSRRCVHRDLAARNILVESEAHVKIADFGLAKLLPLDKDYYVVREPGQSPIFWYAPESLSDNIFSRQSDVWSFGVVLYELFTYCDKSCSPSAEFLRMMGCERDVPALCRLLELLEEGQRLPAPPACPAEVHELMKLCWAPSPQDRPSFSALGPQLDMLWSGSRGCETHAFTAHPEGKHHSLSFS
Put plainly: Test 1: inhibitory activity to JAK3 tyrosine kinase (ELISA). The class given is biochemical. Conditions: 25 μM ATP in substrate solution, 30° C. for 1 hour, n=2. The procedure, abridged:
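ELISA of JAK3 kinase activity with absorbance read at 450 nm. Compounds were tested from DMSO dilution series at 100-fold the measurement concentrations (1000–0.01 μM), diluted up to 20 times in assay buffer, against a DMSO negative control. IC50 was estimated by non-linear regression of absorbance.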

T1 sequence (O60674 whole entry): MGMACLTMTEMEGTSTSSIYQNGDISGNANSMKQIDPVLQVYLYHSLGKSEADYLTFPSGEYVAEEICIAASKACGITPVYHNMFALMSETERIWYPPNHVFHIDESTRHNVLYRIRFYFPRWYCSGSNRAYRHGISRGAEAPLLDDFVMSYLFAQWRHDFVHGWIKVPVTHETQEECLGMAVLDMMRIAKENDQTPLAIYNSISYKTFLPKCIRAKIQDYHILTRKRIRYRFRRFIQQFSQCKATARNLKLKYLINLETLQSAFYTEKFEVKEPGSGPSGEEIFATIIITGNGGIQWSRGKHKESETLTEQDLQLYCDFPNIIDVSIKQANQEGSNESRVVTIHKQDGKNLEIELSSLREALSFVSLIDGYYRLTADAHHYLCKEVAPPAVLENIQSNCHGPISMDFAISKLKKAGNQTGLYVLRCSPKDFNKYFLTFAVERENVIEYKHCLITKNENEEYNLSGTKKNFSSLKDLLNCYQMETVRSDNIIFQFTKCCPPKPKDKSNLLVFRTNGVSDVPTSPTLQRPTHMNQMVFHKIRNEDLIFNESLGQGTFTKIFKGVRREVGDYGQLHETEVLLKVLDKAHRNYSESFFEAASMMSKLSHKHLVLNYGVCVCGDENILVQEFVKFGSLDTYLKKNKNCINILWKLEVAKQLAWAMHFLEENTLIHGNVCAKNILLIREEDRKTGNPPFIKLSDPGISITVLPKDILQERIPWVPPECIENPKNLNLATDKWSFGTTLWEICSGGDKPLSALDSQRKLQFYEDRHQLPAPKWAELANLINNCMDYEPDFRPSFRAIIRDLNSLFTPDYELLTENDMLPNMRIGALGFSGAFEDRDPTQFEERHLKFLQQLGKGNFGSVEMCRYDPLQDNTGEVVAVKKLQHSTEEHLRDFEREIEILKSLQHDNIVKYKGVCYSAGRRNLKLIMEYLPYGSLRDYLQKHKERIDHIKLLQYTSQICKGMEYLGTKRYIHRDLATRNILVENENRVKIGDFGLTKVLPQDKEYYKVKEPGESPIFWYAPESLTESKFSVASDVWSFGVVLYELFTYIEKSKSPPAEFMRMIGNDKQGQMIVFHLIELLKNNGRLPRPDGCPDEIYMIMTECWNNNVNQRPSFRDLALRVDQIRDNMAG

With `C[C@H](Nc1nc(NCC2CCCO2)cc(Nc2cnccn2)n1)c1ccc(F)cc1` (stereo partly drawn) [Example 68, N^2-[(S)-1-(4-Fluorophenyl)ethyl]-N^4-(pyrazin-2-yl)-N^6-[(tetra hydrofuran-2-yl)methyl]pyrimidine-2,4,6-triamine], the IC50 at JAK2 tyrosine kinase was 1.5 nM; at JAK3 tyrosine kinase it was 34 nM.

As for `C[C@H](Nc1nc(Nc2cnccn2)cc(N2CCC[C@H]2CO)n1)c1ccc(F)cc1` [Example 69, ((S)-1-{2-[(S)-1-(4-Fluorophenyl)ethylamino]-6-(pyrazin-2-ylamino)pyrimidin-4-yl}pyrrolidin-2-yl)methanol], the values for the IC50 against JAK2 tyrosine kinase and at JAK3 tyrosine kinase were 2.6 nM and 83 nM, respectively.

Regarding `C[C@H](Nc1nc(Nc2cnccn2)cc(N2CCC[C@@H]2CO)n1)c1ccc(F)cc1` [Example 70, ((R)-1-{2-[(S)-1-(4-Fluorophenyl)ethylamino]-6-(pyrazin-2-ylamino)pyrimidin-4-yl}pyrrolidin-2-yl)methanol hydrochloride], the IC50 on JAK2 tyrosine kinase was 1.5 nM; against JAK3 tyrosine kinase it was 65 nM.

`C[C@H](Nc1nc(Nc2cnccn2)cc(N2CCC(O)CC2)n1)c1ccc(F)cc1` [Example 71, (S)-1-{2-[1-(4-Fluorophenyl)ethylamino]-6-(pyrazin-2-ylamino)pyrimidin-4-yl}piperidin-4-ol hydrochloride]: the IC50 on JAK2 tyrosine kinase was found to be 0.72 nM; against JAK3 tyrosine kinase it was 26 nM.

Take `C[C@H](Nc1nc(Nc2cnccn2)cc(N2CC(O)C2)n1)c1ccc(F)cc1` [Example 72, (S)-1-{2-[1-(4-Fluorophenyl)ethylamino]-6-(pyrazin-2-ylamino)pyrimidin-4-yl}azetidin-3-ol hydrochloride]: the IC50 at JAK2 tyrosine kinase came out at 0.96 nM; against JAK3 tyrosine kinase, 31 nM.

With `C[C@H](Nc1nc(Nc2cnccn2)cc(N2CCCC(O)C2)n1)c1ccc(F)cc1` (stereo partly drawn) [Example 73, 1-{2-[(S)-1-(4-Fluorophenyl)ethylamino]-6-(pyrazin-2-ylamino)pyrimidin-4-yl}piperidin-3-ol hydrochloride], the IC50 amounted to 1.3 nM against JAK2 tyrosine kinase and 48 nM on JAK3 tyrosine kinase.

Regarding `C[C@H](Nc1nc(Nc2cnccn2)cc(-c2cncc(C#N)c2)n1)c1ccc(F)cc1` [Example 74, (S)-5-{2-[1-(4-Fluorophenyl)ethylamino]-6-(pyrazin-2-ylamino)pyrimidin-4-yl}nicotinonitrile], the figures for the IC50 at JAK2 tyrosine kinase and on JAK3 tyrosine kinase were 3.8 nM and 230 nM, respectively.

On to `C[C@H](Nc1nc(Nc2cnccn2)cc(-c2nn[nH]n2)n1)c1ccc(F)cc1` [Example 75, (S)—N^2-[1-(4-Fluorophenyl)ethyl]-N^4-(pyrazin-2-yl)-6-(2H-tetrazol-5-yl)pyrimidine-2,4-diamine], for which the IC50 on JAK2 tyrosine kinase stood at 12 nM; at JAK3 tyrosine kinase, 630 nM.

As for `C[C@H](Nc1nc(NCCN)cc(Nc2cnccn2)n1)c1ccc(F)cc1` [Example 76, (S)—N^4-(2-Aminoethyl)-N^2-[1-(4-fluorophenyl)ethyl]-N^6-(pyrazin-2-yl)pyrimidine-2,4,6-triamine dihydrochloride], the IC50 amounted to 2.5 nM on JAK2 tyrosine kinase and 57 nM at JAK3 tyrosine kinase.

As for `C[C@H](Nc1nc(NCCNS(C)(=O)=O)cc(Nc2cnccn2)n1)c1ccc(F)cc1` [Example 77, (S)—N-(2-{2-[1-(4-Fluorophenyl)ethylamino]-6-(pyrazin-2-ylamino)pyrimidin-4-ylamino}ethyl)methanesulfonamide hydrochloride], the IC50 on JAK2 tyrosine kinase stood at 0.73 nM; against JAK3 tyrosine kinase, 37 nM.

For the molecule `CC(=O)NCCNc1cc(Nc2cnccn2)nc(N[C@@H](C)c2ccc(F)cc2)n1` [Example 78, (S)—N-(2-{2-[1-(4-Fluorophenyl)ethylamino]-6-(pyrazin-2-ylamino)pyrimidin-4-ylamino}ethyl) acetamide hydrochloride], the IC50 stood at 1.4 nM at JAK2 tyrosine kinase and 35 nM against JAK3 tyrosine kinase.

Turning to `C[C@H](Nc1nc(NCC(N)=O)cc(Nc2cnccn2)n1)c1ccc(F)cc1` [Example 79, (S)-2-{2-[1-(4-Fluorophenyl)ethylamino]-6-(pyrazin-2-ylamino)pyrimidin-4-ylamino}acetamide hydrochloride], the IC50 stood at 4.3 nM at JAK2 tyrosine kinase and 140 nM against JAK3 tyrosine kinase.

Take `C[C@H](Nc1nc(Nc2cnccn2)cc(-c2ccc(C(N)=O)cc2)n1)c1ccc(F)cc1` [Example 80, (S)-4-{2-[1-(4-Fluorophenyl)ethylamino]-6-(pyrazin-2-ylamino)pyrimidin-4-yl}benzamide hydrochloride]: the values for the IC50 against JAK2 tyrosine kinase and against JAK3 tyrosine kinase were 1.1 nM and 60 nM, respectively.

Take `C[C@H](Nc1nc(Nc2cnccn2)cc(-c2cccc(C#N)c2)n1)c1ccc(F)cc1` [Example 81, (S)-3-{2-[1-(4-Fluorophenyl)ethylamino]-6-(pyrazin-2-ylamino)pyrimidin-4-yl}benzonitrile]: the IC50 worked out at 5.6 nM on JAK2 tyrosine kinase and 480 nM at JAK3 tyrosine kinase.

With `C[C@H](Nc1nc(Nc2cnccn2)cc(-c2ccoc2)n1)c1ccc(F)cc1` [Example 82, (S)—N^2-[1-(4-Fluorophenyl)ethyl]-6-(furan-3-yl)-N^4-(pyrazin-2-yl)pyrimidine-2,4-diamine hydrochloride], the IC50 is 1.7 nM on JAK2 tyrosine kinase and 99 nM at JAK3 tyrosine kinase.

Regarding `CCOC(=O)C1CCN(c2cc(Nc3cnccn3)nc(N[C@@H](C)c3ccc(F)cc3)n2)CC1` [Example 83, Ethyl (S)-1-{2-[1-(4-fluorophenyl)ethylamino]-6-(pyrazin-2-ylamino)pyrimidin-4-yl}piperidin-4-carboxylate], the values for the IC50 on JAK2 tyrosine kinase and at JAK3 tyrosine kinase were 3.7 nM and 58 nM, respectively.

Consider `C[C@H](Nc1nc(Nc2cnccn2)cc(-c2cncc(C(N)=O)c2)n1)c1ccc(F)cc1` [Example 84, (S)-5-{2-[1-(4-Fluorophenyl)ethylamino]-6-(pyrazin-2-ylamino)pyrimidin-4-yl}nicotinamide], for which the IC50 against JAK2 tyrosine kinase worked out at 2 nM; against JAK3 tyrosine kinase, 170 nM.

For the molecule `C[C@H](Nc1nc(Nc2cnccn2)cc(N2CCC(C(=O)O)CC2)n1)c1ccc(F)cc1` [Example 85, (S)-1-{2-[1-(4-Fluorophenyl)ethylamino]-6-(pyrazin-2-ylamino)pyrimidin-4-yl}piperidine-4-carboxylic acid], the 50% inhibitory concentration (IC50) at JAK2 tyrosine kinase stood at 0.51 nM; on JAK3 tyrosine kinase, 20 nM.

As to `C[C@H](Nc1nc(Nc2cnccn2)cc(N[C@H](CO)c2ccccc2)n1)c1ccc(F)cc1` [Example 86, (S)-2-{2-[(S)-1-(4-Fluorophenyl)ethylamino]-6-(pyrazin-2-ylamino)pyrimidin-4-ylamino}-2-phenylethanol], the IC50 at JAK2 tyrosine kinase came to 2.4 nM; on JAK3 tyrosine kinase it was 87 nM.

Turning to `C[C@H](Nc1nc(Nc2cnccn2)cc(N[C@H](CO)Cc2ccccc2)n1)c1ccc(F)cc1` [Example 87, (S)-2-{2-[(S)-1-(4-Fluorophenyl)ethylamino]-6-(pyrazin-2-ylamino)pyrimidin-4-ylamino}-3-phenylpropan-1-ol], the values for the IC50 at JAK2 tyrosine kinase and against JAK3 tyrosine kinase were 14 nM and 450 nM, respectively.

As for `CC(C)C[C@H](CO)Nc1cc(Nc2cnccn2)nc(N[C@@H](C)c2ccc(F)cc2)n1` [Example 88, (R)-2-{2-[(S)-1-(4-Fluorophenyl)ethylamino]-6-(pyrazin-2-ylamino)pyrimidin-4-ylamino}-4-methylpentan-1-ol], the IC50 against JAK2 tyrosine kinase is 13 nM; on JAK3 tyrosine kinase, 200 nM.

Take `C[C@H](Nc1nc(Nc2cnccn2)cc(OCCN(C)C)n1)c1ccc(F)cc1` [Example 89, (S)-6-[2-(Dimethylamino)ethoxy]-N^2-[1-(4-fluorophenyl)ethyl]-N^4-(pyrazin-2-yl)pyrimidine-2,4-diamine dihydrochloride]: the IC50 is 3.8 nM at JAK2 tyrosine kinase and 150 nM against JAK3 tyrosine kinase.

Take `C[C@H](Nc1nc(Nc2cnccn2)cc(-n2cc(C(=O)O)cn2)n1)c1ccc(F)cc1` [Example 90, (S)-1-{2-[1-(4-Fluorophenyl)ethylamino]-6-(pyrazin-2-ylamino)pyrimidin-4-yl}-1H-pyrazole-4-carboxylic acid]: the IC50 at JAK2 tyrosine kinase is 6.1 nM; at JAK3 tyrosine kinase, 380 nM.

As for `C[C@H](Nc1nc(Nc2cnccn2)cc(-c2cccc(C(N)=O)c2)n1)c1ccc(F)cc1` [Example 91], the IC50 was found to be 1.4 nM on JAK2 tyrosine kinase and 97 nM against JAK3 tyrosine kinase.

These data come from US8586591B2, “Aminopyrazine derivative and medicine” (Nippon Shinyaku Co., Ltd., priority 2009, dated 2013).
